In PMC6383986, “Fragment-Based Covalent Ligand Screening Enables Rapid Discovery of Inhibitors for the RBR E3 Ubiquitin Ligase HOIP” (Journal of the American Chemical Society, 2019):

Experiments:
Assay in all cases: ABPP quantitative MS, HEK293T
Format in all cases: cell-based
Settings in all cases: 30 μM (11a) 7 h vs DMSO, then 3 μM (15) 2 h
ALDH6A1 = target: T1, ALDH6A1 (Homo sapiens, UniProt Q02252)
T1 construct: endogenous in cells; host or cells: HEK293T (A21); MCF7 (A27)
Description: (§1) control and cells treated with control compounds (11i) and (17) at 30 µM). HOIP RBR wild type […]
(§2) nm, indicating low to no labelling by (11a), and a dominant signal from the 800 channel (green).
(§3) C = HOIP RBR control (0.5 µg).
(§4) 5.2 Activity-based protein profiling – Enrichment and LC-MS
(§5) Cell culture and transfection, compound treatment, ha rvest and lysis
(§6) HEK293T cells were cultured and transfected as describ ed in section 4.8 above. MCF7 cells were seeded in 100 mm Petri dishes at 6 × 10^5 cells/dish and cultured overnight at 37 °C as described in section 4.8 above. Both cell types were treated with inhibitor (11a) (30 µM final concentration) or DMSO as described above, incubating for 7 h at 37 °C, followed by addition of clickable probe (15) (3 µM final concentration) and incubation for an additional 2 h. The cells were then harvested and lysed (50 mM Tris-HCl, pH 7.5, 1.5 mM MgCl2, 150 mM NaCl, 5% glycerol, 0.8% v/v IGEPAL-CA630, 25 mM NaF, 1 mM Na3VO4, complete protease inhibitor), and the protein concentration was determined by the BCA assay as described in section 4.7 above.
(§7) Enrichment of TCO-labelled proteins
(§8) Similar to a previously described protocol,22 tetrazine beads were generated by incubating high capacity neutravidin beads (500 µL; Thermo Scientific) with 0.1 µmol tetrazine-PEG4-biotin (Jena Bioscience) in PBS buffer over night at 4 °C, followed by blocking with 5 µL 100 mM biotin in DMSO for 30 minutes at 4 °C. The beads were washed 3× with buffer (50 mM Tris-HCl pH 7.4, 5% glycerol, 1.5 mM MgCl2, 150 mM NaCl, 1 mM Na3VO3, 5 mM NaF) supplemented with 0.4% IGEPAL CA-630 and adjusted to a 5% v/v slurry.
(§9) Lysate with a protein concentration of approx. 2 mg/mL (500 µL) were added to the TCO beads (35 µL) on a 96-well filter plate (Porvair, Dunn #240002) and incubated at 4°C for 2 h. After incubation, beads were washed using a vacuum manifold with 5 mL wash buffer 1 (WB1) (50 mM […]
(§10) (50 mM HEPES pH 8.5, 2 M urea), and 5 mL WB4 (50 mM HEPES pH 8.5). Proteins were then eluted by on bead digestion: 60 µL elution buffer (50 mM HEPES pH 8.5, 5 mM Tris-(2-carboxyethyl)phosphine, 15 mM chloroacetamide, 0.004 µg LysC/ µL (Wako chemicals), 0.004 µg trypsin/µL (Promega)) were added to the washed beads and incubated over night at room temperature. Eluates were collected by centrifugation, beads incubated with an additional 60 µL WB4, eluted and both eluates were combined and lyophilized. […]
(§11) proportional to the number of ions; this measure is referred to as ion area.24 Spectra matching to peptides were filtered according to the following criteria: mascot ion score >15, signal-to-background of the precursor ion >4, and signal -to-interference >0.5. Fold-changes were corrected for isotope purity and adjusted for interference caused by co-eluting nearly isobaric peaks.25 Protein quantification was derived from individual spectra matching to distinct peptides by using a sum-based bootstrap algorithm; 95% confidence intervals were calculated for all protein fold-changes that were quantified with more than three spectra.23 Relative protein abundance s were generated on the basis of MS1 abundances .26 Briefly, XIC peaks were matched to identified peptides. […] These values were then summed, and the mean was calculated.
(§12) In cases where fewer than 3 sequences were associated, the mean was calculated using XIC intensities from either one or two sequences.
(§13) Proteins were filtered for >1 quantified spectra matches (qusm). Residual binding was calculated […]

TRMT61A = target: T2, TRMT61A (Homo sapiens, UniProt Q96FX7)
T2 construct: endogenous in cells; host or cells: HEK293T
T2 sequence (Q96FX7 whole entry): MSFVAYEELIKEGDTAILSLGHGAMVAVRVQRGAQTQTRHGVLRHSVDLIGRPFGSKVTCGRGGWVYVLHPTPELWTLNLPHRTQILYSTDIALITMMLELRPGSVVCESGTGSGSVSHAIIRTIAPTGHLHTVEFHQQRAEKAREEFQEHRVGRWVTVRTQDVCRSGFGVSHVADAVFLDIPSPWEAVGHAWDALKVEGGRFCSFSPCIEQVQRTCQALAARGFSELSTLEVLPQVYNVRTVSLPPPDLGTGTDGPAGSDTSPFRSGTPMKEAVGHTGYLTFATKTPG
Description: as §1, §2, §3, §4, §5, §6, §7, §8, §9, §10, §11, §12, §13

[1] = target: T3, RNF31 (E3 ubiquitin-protein ligase RNF31) (Homo sapiens, UniProt Q96EP0)
T3 construct: expressed in transfected cells; host or cells: HEK293T, transient, modified pcDNA3.1(+)
T3 sequence (Q96EP0 697-1072): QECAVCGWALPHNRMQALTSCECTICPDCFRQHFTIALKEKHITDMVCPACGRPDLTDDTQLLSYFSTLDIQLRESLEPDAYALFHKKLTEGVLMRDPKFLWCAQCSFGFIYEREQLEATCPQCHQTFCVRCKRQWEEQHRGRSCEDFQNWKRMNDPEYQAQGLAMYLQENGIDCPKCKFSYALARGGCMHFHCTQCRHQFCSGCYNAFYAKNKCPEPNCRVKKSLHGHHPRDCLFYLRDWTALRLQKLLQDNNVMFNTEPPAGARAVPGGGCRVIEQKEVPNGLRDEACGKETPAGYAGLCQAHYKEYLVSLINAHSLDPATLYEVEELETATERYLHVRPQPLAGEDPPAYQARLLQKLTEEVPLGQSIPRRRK
Description: as §1, §2, §3, §4, §5, §6, §7, §8, §9, §10, §11, §12, §13

[2] = target: T4, IRAK4 (Interleukin-1 receptor-associated kinase 4) (Homo sapiens, UniProt Q9NWZ3)
T4 construct: endogenous in cells; host or cells: HEK293T (transfected with 3×FLAG HOIP RBR only)
T4 sequence (Q9NWZ3 whole entry): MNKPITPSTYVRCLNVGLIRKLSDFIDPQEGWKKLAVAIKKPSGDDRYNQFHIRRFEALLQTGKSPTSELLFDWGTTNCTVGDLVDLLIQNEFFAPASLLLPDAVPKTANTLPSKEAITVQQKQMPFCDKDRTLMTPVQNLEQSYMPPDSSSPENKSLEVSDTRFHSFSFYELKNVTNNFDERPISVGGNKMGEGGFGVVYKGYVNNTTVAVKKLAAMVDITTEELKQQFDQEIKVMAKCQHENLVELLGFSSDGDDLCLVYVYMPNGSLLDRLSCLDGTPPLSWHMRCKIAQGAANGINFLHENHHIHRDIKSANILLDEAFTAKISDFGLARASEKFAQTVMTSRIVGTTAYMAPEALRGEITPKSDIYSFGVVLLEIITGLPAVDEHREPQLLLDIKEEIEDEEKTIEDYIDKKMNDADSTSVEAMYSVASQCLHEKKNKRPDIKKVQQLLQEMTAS
Description: as §1, §2, §3, §4, §5, §6, §7, §8, §9, §10, §11, §12, §13

NUDT8 = target: T5, NUDT8 (Homo sapiens, UniProt Q8WV74)
T5 construct: endogenous in cells; host or cells: HEK293T
T5 sequence (Q8WV74 whole entry): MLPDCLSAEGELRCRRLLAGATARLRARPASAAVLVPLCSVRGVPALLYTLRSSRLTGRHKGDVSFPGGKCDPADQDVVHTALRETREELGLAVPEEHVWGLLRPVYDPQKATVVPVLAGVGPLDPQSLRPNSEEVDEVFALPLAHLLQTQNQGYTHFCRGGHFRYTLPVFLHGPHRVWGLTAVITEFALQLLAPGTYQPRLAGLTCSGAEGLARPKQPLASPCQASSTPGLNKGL
Description: as §1, §2, §3, §4, §5, §6, §7, §8, §9, §10, §11, §12, §13

T1 sequence (Q02252 34-535): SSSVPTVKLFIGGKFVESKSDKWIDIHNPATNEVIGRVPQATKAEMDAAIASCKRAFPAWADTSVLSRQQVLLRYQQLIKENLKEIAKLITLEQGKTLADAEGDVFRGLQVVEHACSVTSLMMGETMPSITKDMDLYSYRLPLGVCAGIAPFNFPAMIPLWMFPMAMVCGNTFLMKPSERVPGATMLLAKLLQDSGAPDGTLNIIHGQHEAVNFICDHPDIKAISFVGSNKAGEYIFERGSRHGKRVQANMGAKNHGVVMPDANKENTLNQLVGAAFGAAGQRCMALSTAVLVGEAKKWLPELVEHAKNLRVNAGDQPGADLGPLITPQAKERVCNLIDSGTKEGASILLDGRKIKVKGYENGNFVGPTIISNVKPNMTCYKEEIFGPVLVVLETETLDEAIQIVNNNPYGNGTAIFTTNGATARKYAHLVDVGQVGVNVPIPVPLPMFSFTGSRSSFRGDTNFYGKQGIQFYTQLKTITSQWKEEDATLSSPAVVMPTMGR

- ratio: mean ratio between control and competition samples, ALDH6A1 (ALDH6A1): -1.278 log2
- ratio: mean ratio between control and competition samples, TRMT61A (TRMT61A): -1.293 log2
- ratio: mean ratio between control and competition samples, RNF31 [1]: -2.293 log2
- ratio: mean ratio between control and competition samples, IRAK4 [2]: -1.675 log2
- ratio: mean ratio between control and competition samples, NUDT8 (NUDT8): -1.172 log2
Compound: COC(=O)/C=C/CNC(=O)c1cc2c([nH]c1=O)CCCC2 [Compound 11a]
